{"source": "patent US20150133373A1", "about": "“TRANSMUCOSAL DELIVERY OF ENGINEERED POLYPEPTIDES” (priority 2012, published 2015)", "molecules": {"B1": {"name": "HGEGTFTSDLSKQLEEEAVRLFIEWLKNTGGGGSASGSLAEAKEAANAELDSYGVSDFYKRLIDKAKTVEGVEALKDAILAALP (protein)", "chain": "HGEGTFTSDLSKQLEEEAVRLFIEWLKNTGGGGSASGSLAEAKEAANAELDSYGVSDFYKRLIDKAKTVEGVEALKDAILAALP"}}, "key": {"[1]": {"system": "CD3+CD4+ T cells (PBMC from 52 human Caucasian individuals)"}, "NIH/Swiss mice": {"system": "NIH/Swiss mice", "experiment": "OGTT DOA (oral glucose tolerance test for duration of action) in NIH/Swiss mice", "format": "in vivo, mouse", "conditions": "for % Glucose Lowering Compared to Vehicle: Table 6, 25 nmol/kg IP at t=−1 day, blood glucose at 30 min after glucose gavage ([…]), 4 hr fasted NIH/Swiss female mice; for activity in OGTT DOA when dosed 24 hours before the glucose gavage (in words): dosed at t-24 hours"}, "C57BL6 female mice": {"system": "C57BL6 female mice", "experiment": "Kidney vacuolization (cytoplasmic vacuolation of renal cortical tubular epithelial cells)", "format": "in vivo, mouse", "conditions": "Example 32; sc injection on days 0-6, kidneys on day 7", "method": "With some drugs, such as some pegylated proteins, undesirable vacuoles can form in cytoplasm of epithelial cells lining the proximal convoluted tubules, which is an undesirable toxicity measure. […] C57BL6 female mice (n=2 cages, 3 mice/cage) were weighed daily 3 hours prior to lights out Immediately after weighing, on days 0-6 mice were injected subcutaneously with test compound. Mice were sacrificed on day 7 and kidneys submitted for histopathology. […] A positive control compound known to cause vacuole formation was scored as 3. The ABD polypeptide itself scored 0.\nWith some drugs, such as some pegylated proteins, undesirable vacuoles can form in cytoplasm of epithelial cells lining the proximal convoluted tubules, which is an undesirable toxicity measure. […] C57BL6 female mice (n=2 cages, 3 mice/cage) were weighed daily 3 hours prior to lights out Immediately after weighing, on days 0-6 mice were injected subcutaneously with test compound. Mice were sacrificed on day 7 and kidneys submitted for histopathology. […] A positive control compound known to cause vacuole formation was scored as 3."}, "[2]": {"experiment": "Stability in a pancreatin enzyme mixture", "format": "in vitro ADME", "conditions": "isolated enzyme pancreatin"}, "Pancreatin": {"system": "Pancreatin", "experiment": "Stability in a pancreatin enzyme mixture", "format": "in vitro ADME", "conditions": "pH 6.8"}, "[3]": {"system": "IgG molecules present in normal human sera", "experiment": "Serum response analysis (ELISA, IgG binding to albumin binding polypeptides)", "method": "Each serum sample was tested as a singlet."}, "[4]": {"experiment": "Melting temperature (Tm) by circular dichroism", "format": "physicochemical", "conditions": "CD at 221 nm, 20° to 90° C., 1×PBS, 0.4-0.5 mg/ml", "method": "Purified albumin binding polypeptide variants were diluted in 1×PBS, to final concentrations between 0.4 and 0.5 mg/ml. Circular dichroism (CD) analysis was performed on a Jasco J-810 spectropolarimeter in a cell with an optical path-length of 1 mm. In the variable temperature measurements, the […] was measured at 221 nm from 20° to 90° C., with a temperature slope of 5° C./min.\nThe melting temperatures (Tm) of the different albumin binding polypeptide variants were calculated by determining the midpoint of the transition in the CD vs. temperature plot."}, "GLP-1 receptor": {"biological_target": "T1, GLP-1 receptor (Rattus norvegicus, UniProt P32301)", "T1 construct": "cells that endogenously express GLP-1R; host or cells: rat thyroid carcinoma 6-23 (clone 6) cells", "T1 sequence (P32301 22-463)": "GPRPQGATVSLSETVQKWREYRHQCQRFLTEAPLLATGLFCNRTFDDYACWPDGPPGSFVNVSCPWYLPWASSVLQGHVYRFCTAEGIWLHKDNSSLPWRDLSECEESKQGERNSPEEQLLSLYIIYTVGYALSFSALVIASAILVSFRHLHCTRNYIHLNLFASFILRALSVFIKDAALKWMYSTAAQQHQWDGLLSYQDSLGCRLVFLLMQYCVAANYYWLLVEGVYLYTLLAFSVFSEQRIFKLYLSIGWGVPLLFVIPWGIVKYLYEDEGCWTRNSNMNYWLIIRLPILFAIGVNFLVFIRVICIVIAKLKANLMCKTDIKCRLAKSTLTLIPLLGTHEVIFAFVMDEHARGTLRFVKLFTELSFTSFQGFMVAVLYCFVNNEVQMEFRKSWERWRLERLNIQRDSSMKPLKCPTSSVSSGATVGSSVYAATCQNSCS", "experiment": "GLP-1 receptor functional activity (cAMP induction, HTRF cell-based assay, 6-23 (clone 6) cells)"}}, "note": "Where two headings read alike, the source gives them in different places. No end group written: not given here. *: point of attachment. maleimido‑mono‑amide‑DOTA = O=C(O)CN1CCN(CC(=O)O)CCN(CC(=O)NCCN2C(=O)CC(*)C2=O)CCN(CC(=O)O)CC1"}
{"molecule": "TT: tetanus toxoid (TT, Statens Serum Institut), positive control [reference compound]", "values": [{"measurement": "number of responding individuals as compared to buffer only", "setting": "[1]; 52 donors", "result": 49}]}
{"molecule": "HGEGTFTSDLSKQMEEEAVRLFIEWLKNTGGGGSASLAEAKVLANRELDKYGVSDFYKRLINKAKTVEGVEALKLHILAALP [Cmpd 10]", "values": [{"measurement": "% Glucose Lowering Compared to Vehicle", "setting": "NIH/Swiss mice", "result": "−22", "unit": "%"}]}
{"molecule": "HGEGTFTSDLSKQLEEEAVRLFIEWLKQGGPSKEIISTGGGGSASGSLAEAKEAANAELDSYGVSDFYKRLIDKAKTVEGVEALKDAILAALP [Cmpd 2-5]", "values": [{"measurement": "Severity score for cytoplasmic vacuolation of renal cortical tubular epithelial cells", "setting": "C57BL6 female mice", "result": 0}]}
{"molecule": "HGEGTFTSDLSKQLEEEAVRLFIEWLKQGGPSKEIISGGSLAEAKVLANRELDKYGVSDFYKRLINKAKTVEGVEALKLHILAALP [Cmpd 33]", "values": [{"measurement": "% Glucose Lowering Compared to Vehicle", "setting": "NIH/Swiss mice", "result": "−19", "unit": "%"}]}
{"molecule": "CCCCCCCCCCCCCCCC(=O)N[C@@H](CCC(=O)NCCCC[C@H](NC(=O)[C@H](C)NC(=O)[C@H](C)NC(=O)[C@H](CCC(N)=O)NC(=O)CNC(=O)[C@H](CCC(=O)O)NC(=O)[C@H](CC(C)C)NC(=O)[C@H](Cc1ccc(O)cc1)NC(=O)[C@H](CO)NC(=O)[C@H](CO)NC(=O)[C@@H](NC(=O)[C@H](CC(=O)O)NC(=O)[C@H](CO)NC(=O)[C@@H](NC(=O)[C@H](Cc1ccccc1)NC(=O)[C@@H](NC(=O)CNC(=O)[C@H](CCC(=O)O)NC(=O)[C@H](C)NC(=O)[C@@H](N)Cc1cnc[nH]1)[C@@H](C)O)[C@@H](C)O)C(C)C)C(=O)N[C@@H](CCC(=O)O)C(=O)N[C@@H](Cc1ccccc1)C(=O)N[C@H](C(=O)N[C@@H](C)C(=O)N[C@@H](Cc1c[nH]c2ccccc12)C(=O)N[C@@H](CC(C)C)C(=O)N[C@H](C(=O)N[C@@H](CCCNC(=N)N)C(=O)NCC(=O)N[C@@H](CCCNC(=N)N)C(=O)NCC(=O)O)C(C)C)[C@@H](C)CC)C(=O)O", "note": "[liraglutide, [N-epsilon-(gamma-Glu(N-alpha-hexadecanoyl))-Lys26,Arg34]-GLP-1-(7-37)-acid]", "values": [{"measurement": "remaining at 0.5 h, 30 micromolar", "setting": "[2]; pH 6.8", "result": 100, "unit": "%"}, {"measurement": "remaining at 1 h, 30 micromolar", "setting": "[2]; pH 6.8", "result": 100, "unit": "%"}, {"measurement": "susceptibility to pancreatic enzymes (in words)", "setting": "Pancreatin", "result": "relatively resistant to pancreatic enzymes"}]}
{"molecule": "GSLAEAKEAANAELDSYGVSDFYKRLIDKAKTVEGVEALKDAILAALP [PEP07986]", "values": [{"measurement": "activity in OGTT DOA when dosed 24 hours before the glucose gavage (in words)", "setting": "NIH/Swiss mice", "result": "inactive"}]}
{"molecule": "GSSLASAKEAANAELDSYGVSDFYKRLIDKAKTVEGVEALKDAILAALP [PEP07554]", "values": [{"measurement": "reactivity with IgG of human sera (in words)", "setting": "[3]", "result": "least reactivity"}, {"measurement": "Tm", "setting": "[4]", "result": 58, "unit": "°C"}]}
{"molecule": "HGEGTFTSDLSKQMEEEAVRLFIEWLKNGGSLAEAKVLANRELDKYGVSDFYKRLINKAKTVEGVEALKLHILAALP [Cmpd 32]", "values": [{"measurement": "activity in OGTT DOA when dosed 24 hours before the glucose gavage (in words)", "setting": "NIH/Swiss mice", "result": "no glucose lowering"}]}
{"molecule": "CC[C@H](C)[C@H](NC(=O)[C@H](C)NC(=O)[C@H](CC(=O)O)NC(=O)[C@H](CCCCN)NC(=O)[C@H](CC(C)C)NC(=O)[C@H](C)NC(=O)[C@H](CCC(=O)O)NC(=O)[C@@H](NC(=O)CNC(=O)[C@H](CCC(=O)O)NC(=O)[C@@H](NC(=O)[C@@H](NC(=O)[C@H](CCCCN)NC(=O)[C@H](C)NC(=O)[C@H](CCCCN)NC(=O)[C@H](CC(=O)O)NC(=O)[C@@H](NC(=O)[C@H](CC(C)C)NC(=O)[C@H](CCCNC(=N)N)NC(=O)[C@H](CCCCN)NC(=O)[C@H](Cc1ccc(O)cc1)NC(=O)[C@H](Cc1ccccc1)NC(=O)[C@H](CC(=O)O)NC(=O)[C@H](CO)NC(=O)[C@@H](NC(=O)CNC(=O)[C@H](Cc1ccc(O)cc1)NC(=O)[C@H](CSC1CC(=O)N(CCNC(=O)CN2CCN(CC(=O)O)CCN(CC(=O)O)CCN(CC(=O)O)CC2)C1=O)NC(=O)[C@H](CC(=O)O)NC(=O)[C@H](CC(C)C)NC(=O)[C@H](CCC(=O)O)NC(=O)[C@H](C)NC(=O)[C@H](CC(N)=O)NC(=O)[C@H](C)NC(=O)[C@H](C)NC(=O)[C@H](CCC(=O)O)NC(=O)[C@H](CCCCN)NC(=O)[C@H](C)NC(=O)[C@H](CO)NC(=O)[C@H](C)NC(=O)[C@H](CC(C)C)NC(=O)CN)C(C)C)[C@@H](C)CC)[C@@H](C)O)C(C)C)C(C)C)C(=O)N[C@@H](CC(C)C)C(=O)N[C@@H](C)C(=O)N[C@@H](C)C(=O)N[C@@H](CC(C)C)C(=O)N1CCC[C@H]1C(=O)O", "note": "(stereo partly drawn) [PEP07968]", "values": [{"measurement": "reactivity with IgG of human sera (in words)", "setting": "[3]", "result": "least reactivity"}, {"measurement": "immunogenicity classification (in words)", "setting": "[1]", "result": "non-immunogenic"}, {"measurement": "number of responding individuals as compared to buffer only", "setting": "[1]", "result": 1}]}
{"molecule": "CC[C@H](C)[C@H](NC(=O)[C@H](Cc1ccccc1)NC(=O)[C@H](CCC(=O)O)NC(=O)[C@H](CCCCN)NC(=O)[C@H](C)NC(=O)[C@H](C)NC(=O)[C@H](CCC(N)=O)NC(=O)CNC(=O)[C@H](CCC(=O)O)NC(=O)[C@H](CC(C)C)NC(=O)[C@H](Cc1ccc(O)cc1)NC(=O)[C@H](CO)NC(=O)[C@H](CO)NC(=O)[C@@H](NC(=O)[C@H](CC(=O)O)NC(=O)[C@H](CO)NC(=O)[C@@H](NC(=O)[C@H](Cc1ccccc1)NC(=O)[C@@H](NC(=O)CNC(=O)[C@H](CCC(=O)O)NC(=O)[C@H](C)NC(=O)[C@@H](N)Cc1c[nH]cn1)[C@@H](C)O)[C@@H](C)O)C(C)C)C(=O)N[C@@H](C)C(=O)N[C@@H](Cc1c[nH]c2ccccc12)C(=O)N[C@@H](CC(C)C)C(=O)N[C@H](C(=O)N[C@@H](CCCCN)C(=O)NCC(=O)N[C@@H](CCCNC(=N)N)C(N)=O)C(C)C", "note": "[GLP-1 (7-36) (Human)]", "values": [{"measurement": "remaining at 0.5 h, 30 micromolar", "setting": "[2]; pancreatin enzyme mixture, 50 mM phosphate buffer pH 6.8, 37° C., 30 minutes, read-out: Percent Remaining at 30 minutes", "result": 39, "unit": "%"}, {"measurement": "remaining at 1 h, 30 micromolar", "setting": "[2]; pancreatin enzyme mixture, 50 mM phosphate buffer pH 6.8, 37° C., 60 minutes, read-out: Percent Remaining at 60 minutes", "result": 24, "unit": "%"}]}
{"molecule": "HGEGTFTSDLSKQLEEEAVRLFIEWLKQGGPSKEIISTGGGGSGGGSGGGSGGGSASLAEAKVLANRELDKYGVSDFYKRLINKAKTVEGVEALKLHILAALP [Cmpd 8]", "values": [{"measurement": "% Glucose Lowering Compared to Vehicle", "setting": "NIH/Swiss mice", "result": "−21", "unit": "%"}]}
{"molecule": "HGEGTFTSDLSKQLEEEAVRLFIEWLKNGGPSSGAPPKSTGGGGSASGSLAEAKEAANAELDSYGVSDFYKRLIDKAKTVEGVEALKDAILAALP [Cmpd 2-6]", "values": [{"measurement": "Percent glucose lowering compared to vehicle", "setting": "NIH/Swiss mice; Table 17, 25 nmol/Kg, OGTT at 24 hours post drug administration, 30 minutes post gavage", "result": "−22", "unit": "%"}]}
{"molecule": "PEP07975: DOTA-conjugated PEP07834, SEQ ID NO:460, via Cys14 with maleimido-mono-amide-DOTA; amidated at the C-terminus (ALASAKEAANAELDC(maleimido‑mono‑amide‑DOTA)YGVSDFYKRLIDKAKTVEGVEALKDAILAALP-NH2)", "values": [{"measurement": "Tm", "setting": "[4]", "result": 50, "unit": "°C"}]}
{"molecule": "B1", "values": [{"measurement": "activity in OGTT DOA when dosed 24 hours before the glucose gavage (in words)", "setting": "NIH/Swiss mice", "result": "did not display 24 h duration"}, {"measurement": "in vitro GLP-1 receptor functional activity (in words)", "setting": "GLP-1 receptor", "result": "active in vitro against the GLP-1 receptor"}]}
